Experimental data taken from patent US7476670B2, “Purine derivatives, method for preparing, pharmaceutical compositions and novel use” (Aventis Pharma S.A., priority 2003, dated 2009).

Columns and labels:
Aspergillus fumigatus = experiment: Minimum inhibitory concentration in liquid medium, micro method (NCCLS M27-A); type: cell-based; settings: Aspergillus fumigatus; at least 80% inhibition of growth, read after 48-72 h at 37° C., RPMI 1640
CaCiv1 = CaCiv1 (Candida albicans, UniProt A0A1D8PH53); experiment: Assay for inhibition of CIV-CDK (CIV1) activity; type: biochemical
Sequence of CaCiv1 (A0A1D8PH53 entry or part of it): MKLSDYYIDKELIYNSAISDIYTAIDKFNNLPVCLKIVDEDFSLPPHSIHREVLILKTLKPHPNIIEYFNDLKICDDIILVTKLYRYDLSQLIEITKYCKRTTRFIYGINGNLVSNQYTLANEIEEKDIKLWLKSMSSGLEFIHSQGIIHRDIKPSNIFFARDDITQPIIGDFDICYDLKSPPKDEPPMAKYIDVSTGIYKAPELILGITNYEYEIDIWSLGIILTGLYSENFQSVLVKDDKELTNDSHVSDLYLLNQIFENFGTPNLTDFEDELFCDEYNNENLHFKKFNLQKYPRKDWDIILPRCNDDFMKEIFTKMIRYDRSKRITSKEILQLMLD
From the text: 1) Assay for Inhibition of CIV-CDK (CIV1) Activity
a) Preparation of the Reagents

ZAP kinase = molecular target: T1, ZAP kinase (Homo sapiens, UniProt P43403); experiment: Assay for inhibition of ZAP kinase activity; type: biochemical; settings: fluorescence polarization, read-out: percentage inhibition at 20 μM
T1 construct: purchased Panvera P2782
T1 sequence (P43403 1-619): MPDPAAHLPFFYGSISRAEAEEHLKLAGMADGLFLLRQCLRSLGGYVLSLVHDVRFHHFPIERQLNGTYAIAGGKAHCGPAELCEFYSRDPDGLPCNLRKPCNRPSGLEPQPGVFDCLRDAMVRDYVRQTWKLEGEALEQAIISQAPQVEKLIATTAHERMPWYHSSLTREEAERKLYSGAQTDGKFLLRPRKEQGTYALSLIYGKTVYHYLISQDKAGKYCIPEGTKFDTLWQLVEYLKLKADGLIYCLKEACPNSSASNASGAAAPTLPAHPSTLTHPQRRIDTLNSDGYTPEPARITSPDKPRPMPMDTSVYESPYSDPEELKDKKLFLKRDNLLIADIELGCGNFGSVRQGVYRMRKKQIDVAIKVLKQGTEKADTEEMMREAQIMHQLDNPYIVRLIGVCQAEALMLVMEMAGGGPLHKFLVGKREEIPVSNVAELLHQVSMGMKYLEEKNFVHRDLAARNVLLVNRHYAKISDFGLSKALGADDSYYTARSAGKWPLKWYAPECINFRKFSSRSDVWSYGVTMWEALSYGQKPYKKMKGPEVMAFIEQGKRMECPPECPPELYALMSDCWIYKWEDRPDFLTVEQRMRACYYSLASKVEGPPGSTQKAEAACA
Experimental: The inhibition of the kinase activity is determined by fluorescence polarization, the ZAP kinase phosphorylates a peptide detected by adding an anti-phosphopeptide antibody coupled to a fluorescent label.
The assay is carried out in a final volume of 50 μl; all the reagents are prepared in a buffer: • 20 mM Tris/HCl pH 7.7 • 7 mM MnCl2 • 50 μM Na2VO4 5 μl of the 10-times concentrated inhibitor are added to 25 μl of enzyme (0.7 μg/ml final concentration) (Panvera ref P2782). After incubation for 5 minutes at ambient temperature, 10 μl of PolyGT (300 ng/ml final concentration) and 10 μl of ATP (0.25 μM final concentration) are added. The detection is carried out after incubation for 15 minutes at ambient temperature. • Results obtained expressed as percentage inhibition at 20 μM • Example 8 98% • Example 20 95% • Example 24 96% 7) Assay for Inhibition of Casein Kinase II Activity

AKT kinase = AKT kinase (Homo sapiens, UniProt P31749); experiment: Assay for inhibition of AKT activity; type: biochemical; settings: fluorescence polarization, ATP 80 μM; read-out: IC50s expressed as micromolar
Sequence of AKT kinase (P31749 whole entry): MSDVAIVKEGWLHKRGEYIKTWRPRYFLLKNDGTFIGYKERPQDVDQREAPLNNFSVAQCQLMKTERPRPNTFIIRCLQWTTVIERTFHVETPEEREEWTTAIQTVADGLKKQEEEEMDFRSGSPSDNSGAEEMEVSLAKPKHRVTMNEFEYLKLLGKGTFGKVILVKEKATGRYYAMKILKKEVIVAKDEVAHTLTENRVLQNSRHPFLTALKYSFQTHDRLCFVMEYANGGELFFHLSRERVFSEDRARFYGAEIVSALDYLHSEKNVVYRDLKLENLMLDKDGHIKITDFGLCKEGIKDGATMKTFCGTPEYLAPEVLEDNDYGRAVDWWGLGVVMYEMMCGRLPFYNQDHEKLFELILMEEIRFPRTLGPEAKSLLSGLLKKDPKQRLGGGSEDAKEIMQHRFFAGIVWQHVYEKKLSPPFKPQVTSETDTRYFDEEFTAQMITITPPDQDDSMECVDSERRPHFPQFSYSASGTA
Experimental: The inhibition of the kinase activity is determined by fluorescence polarization, the AKT kinase phosphorylates a peptide detected by adding an anti-phosphopeptide antibody coupled to a fluorescent label.
The assay is carried out in a final volume of 30 μl; all the reagents are prepared in a buffer: • 50 mM HEPES pH 7.5 • 0.03% triton X100 • 10 mM MgCl2 • 5% Glycerol • 1 mM DTT 10 μl of the 10-times concentrated inhibitor are added to 5 μl of enzyme (20 ng final concentration), and 5 μl of peptide (1 μM final concentration) and 10 μl of ATP (80 μM. final concentration) are added.

CAN Kinase II = experiment: Assay for inhibition for CAN kinase II activity; type: biochemical; settings: [33P]ATP, calmodulin
Experimental: The inhibition of the kinase activity is determined by. measuring the phosphorylation of its substrate peptide.
The assay is carried out in a final volume of 50 μl.
The incubation buffer is as follows:
• 20 mM MOPS pH 7.4 • 5 mM MgCl2 • 5 mM CaCl2 • 1 mM DTT • 100 μM Na2VO4 • 25 mM Beta-glycerophosphate 5 μl of the 10-times concentrated inhibitor are added to 25 μl of incubation buffer containing 0.2 μg/μl final concentration of the enzyme (Tebu, SE-134); 10 μl of incubation buffer containing 5 μM final concentration of substrate and 1600 U/ml final concentration of calmodulin are then added and, finally, 10 μl of incubation buffer containing 20 μM ATP and radiolabeled ATP, [^33P]ATP (0.05 μCi), are added. The reaction is stopped after incubation for 40 minutes at ambient temperature. • Results obtained expressed as percentage inhibition at 20 μM • Example 30 98% 9) Assay for Inhibition of EGF tyr Kinase Activity

| Structure (SMILES) | MIC (Aspergillus fumigatus) [µg/mL] | IC50 (CaCiv1) [nM] | inhibition at 20 µM (ZAP kinase) [%] | IC50 (AKT kinase) [µM] | percentage inhibition at 20 μM (CAN Kinase II) [%] |
| --- | --- | --- | --- | --- | --- |
| Cl.N[C@H]1CC[C@H](Nc2nc(-n3cnc4cc(Cl)c(Cl)cc43)c3nc[nH]c3n2)CC1 [Example 8, Trans-N-[6-(5,6-dichloro-1H-benzimidazol-1-yl)-9H-purin-2-yl]-1,4-cyclohexanediamine hydrochloride] | 32 | 1300 | 98 | 0.46 | – |
| Cl.Cl.N[C@H]1CC[C@H](Nc2nc(N3CCc4cc([N+](=O)[O-])ccc43)c3nc[nH]c3n2)CC1 [Example 30, Trans-N-[6-(2,3-dihydro-5-nitro-1H-indol-1-yl)-9H-purin-2-yl]-1,4-cyclohexanediamine dihydrochloride] | – | 100 | – | – | 98 |
